The target in this assay is T1, hP2X3 (human Purinergic P2X receptors subtype 3), clone B (Homo sapiens, UniProt P56373).
T1 sequence (P56373 1-397): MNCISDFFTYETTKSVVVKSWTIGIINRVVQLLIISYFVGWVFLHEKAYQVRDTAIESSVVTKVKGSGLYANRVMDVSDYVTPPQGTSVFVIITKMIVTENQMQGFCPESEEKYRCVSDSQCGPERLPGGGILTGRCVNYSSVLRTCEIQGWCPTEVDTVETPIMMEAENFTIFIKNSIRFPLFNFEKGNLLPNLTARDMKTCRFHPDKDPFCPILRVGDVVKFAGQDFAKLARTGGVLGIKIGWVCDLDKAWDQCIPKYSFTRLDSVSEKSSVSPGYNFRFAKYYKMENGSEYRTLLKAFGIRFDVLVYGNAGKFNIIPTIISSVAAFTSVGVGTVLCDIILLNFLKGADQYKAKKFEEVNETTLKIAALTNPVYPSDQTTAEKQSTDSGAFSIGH
Put plainly: hP2X3 FLIPR calcium (Fluo-4) antagonist assay, clone B. The following applies: Human P2X3 FLIPR Clone B IC50 (nM), RLE cells expressing hP2X3 clone B (NM_002559); agonist 500 nM α,β-methylene-ATP.
Method: The assay used a calcium indicator dye (Fluo-4) that emits fluorescence, the intensity of which is related to the concentration of calcium that entered the cell when P2X3 was activated and the channel opened. Activation of hP2X3 or rat P2X3 and rat P2X2/3 (from the coexpression of rat P2X3 and rat P2×2) is elicited the by P2X3 agonist α,β methylene-ATP (Sigma M6517), and the resulting fluorescence is measured with a FLIPR II™ instrument (Molecular Devices). Compounds are tested for their ability to inhibit the agonist-induced fluorescent signal.
For the rat P2X2/3 HEK-TREX cells, induction of the rat P2X3 expression is used to generate the rat P2X2/3 channels in HEK-TREX cells and performed by addition of 1 μg/mL tetracycline (Invitrogen) 24 h prior to compounds testing to the HEK-TREX expressing the rat P2X2 constitutively. On the day of the experiment, the cells and test compounds are prepared as follows. […] After preparing the compounds, the medium is removed from the cell plates by inversion. A loading solution of 30 μL assay buffer containing 4 μM of the calcium indicator dye FLUO-4 AM (Molecular Probes F14202) is added to each well using a Multidrop (Labsystems). […] The incubation is terminated by washing the cells four times in assay buffer using a Skatron Embla (Molecular Devices), and 25 μL of assay buffer was left in each well. Cell plates are then transferred to the FLIPR. Experiments are initiated by measuring a baseline fluorescence reading for 10 seconds, followed by the addition of 12.5 μL of cpds and data sampling for a total 280 seconds. The experiments are terminated by addition of 12.5 μL of a reference agonist (500 nM α,β-methylene-ATP) or buffer, producing a final assay volume of 50 μL followed by data sampling for an additional 280 seconds.
In P2X3 antagonist experiments (human and rat assays) data are analysed as normalised maximal peak fluorescence monitored following agonist addition and calculated as percent of relative fluorescent counts from control agonist. The dose-response antagonist inhibition curves are analyzed in a 4-parameter sigmoidal fit using a non-linear curve-fitting program (XLfit version 5.0.6, ID Business Solutions Limited, Guildford, UK).
Regarding `CC(C)N1Cc2c(NC(c3ccc(F)cc3)c3ccc(F)cc3)nc(N3CC4CC3CN4C)nc2C1=O` (stereo not shown) [Example 23, 4-{[bis(4-fluorophenyl)methyl]amino}-6-isopropyl-2-(5-methyl-2,5-diazabicyclo[2.2.1]hept-2-yl)-5,6-dihydro-7H-pyrrolo[3,4-d]pyrimidin-7-one], the IC50 was determined as 210 nM.

For `CC(C)N1Cc2c(NC(c3ccc(F)cc3)c3ccc(F)cc3)nc(N(C)CCN(C)C)nc2C1=O` [Example 24, 4-{[bis(4-fluorophenyl)methyl]amino}-2-[[2-(dimethylamino)ethyl](methyl)amino]-6-isopropyl-5,6-dihydro-7H-pyrrolo[3,4-d]pyrimidin-7-one], the IC50 is 190 nM. With `CC(=O)N1CCN(c2nc(NC(c3ccc(Cl)cc3)C3CC3)c3c(n2)C(=O)N(C(C)C)C3)CC1` (stereo not shown) [Example 27, 2-(4-acetylpiperazin-1-yl)-4-{[(4-chlorophenyl)(cyclopropyl)methyl]amino}-6-isopropyl-5,6-dihydro-7H-pyrrolo[3,4-d]pyrimidin-7-one] the figure was 140 nM; with `CC(=O)N1CCN(c2nc(NC(C)c3ccc(C(F)(F)F)cc3)c3c(n2)C(=O)N(C(C)C)C3)CC1` (stereo not shown) [Example 28, 2-(4-acetylpiperazin-1-yl)-6-isopropyl-4-({1-[4-(trifluoromethyl)phenyl]ethyl}amino)-5,6-dihydro-7H-pyrrolo[3,4-d]pyrimidin-7-one], 200 nM.

`CCCc1ccc(C(C)Nc2nc(N3CCN(C(C)=O)CC3)nc3c2CN(C(C)C)C3=O)cc1` (stereo not shown) [Example 29, 2-(4-acetylpiperazin-1-yl)-6-isopropyl-4-{[1-(4-propylphenyl)ethyl]amino}-5,6-dihydro-7H-pyrrolo[3,4-d]pyrimidin-7-one]: the IC50 was 160 nM.

Consider `CC(C)N1Cc2c(Nc3ccc(Cl)cc3)nc(N3CCN(C(=O)CC4NC(=O)NC4=O)CC3)nc2C1=O` (stereo not shown) [Example 31, 5-[2-(4-{4-[(4-chlorophenyl)amino]-6-isopropyl-7-oxo-6,7-dihydro-5H-pyrrolo[3,4-d]pyrimidin-2-yl}piperazin-1-yl)-2-oxoethyl]imidazolidine-2,4-dione], for which the 50% inhibitory concentration (IC50) worked out at 270 nM. With `CCC(Nc1nc(N2CCN(C(C)=O)CC2)nc2c1CN(C(C)C)C2=O)c1ccc(C(F)(F)F)cc1` (stereo not shown) [Example 32, 2-(4-acetylpiperazin-1-yl)-6-isopropyl-4-({1-[4-(trifluoromethyl)phenyl]propyl}amino)-5,6-dihydro-7H-pyrrolo[3,4-d]pyrimidin-7-one] the figure was 430 nM. The value for `CC(=O)N1CCN(c2nc(NC(C(=O)O)c3ccc(C(F)(F)F)cc3)c3c(n2)C(=O)N(C(C)C)C3)CC1` (stereo not shown) [Example 35, {[2-(4-acetylpiperazin-1-yl)-6-isopropyl-7-oxo-6,7-dihydro-5H-pyrrolo[3,4-d]pyrimidin-4-yl]amino}[4-(trifluoromethyl)phenyl]acetic acid] was 1200 nM; that for `CCC(Nc1nc(N2CCN(C(C)=O)CC2)nc2c1CN(C(C)C)C2=O)c1ccc(C)cc1` (stereo not shown) [Example 36, 2-(4-acetylpiperazin-1-yl)-6-isopropyl-4-{[1-(4-methylphenyl)propyl]amino}-5,6-dihydro-7H-pyrrolo[3,4-d]pyrimidin-7-one] was 1800 nM.

Consider `CC(C)N1Cc2c(Nc3ccc(Cc4ccccc4)cc3)nc(N3CCOCC3)nc2C1=O` [Example 37, 4-[(4-benzylphenyl)amino]-6-isopropyl-2-morpholin-4-yl-5,6-dihydro-7H-pyrrolo[3,4-d]pyrimidin-7-one], for which the IC50 was greater than 30000 nM. With `CC(=O)N1CCN(c2nc(NCc3ccc4c(c3)CCCN4C)c3c(n2)C(=O)N(C(C)C)C3)CC1` [Example 38, 2-(4-acetylpiperazin-1-yl)-6-isopropyl-4-{[(1-methyl-1,2,3,4-tetrahydroquinolin-6-yl)methyl]amino}-5,6-dihydro-7H-pyrrolo[3,4-d]pyrimidin-7-one] the figure was 12000 nM. Take `CCN(Nc1nc(N2CCN(C(C)=O)CC2)nc2c1CN(C(C)C)C2=O)c1ccc(C)cc1` [Example 39, 2-(4-acetylpiperazin-1-yl)-4-[2-ethyl-2-(4-methylphenyl)hydrazino]-6-isopropyl-5,6-dihydro-7H-pyrrolo[3,4-d]pyrimidin-7-one]: the IC50 was found to be 10000 nM. The value for `CC(=O)N1CCN(c2nc(NC(C)c3ccc(C(C)C)cc3)c3c(n2)C(=O)N(C(C)C)C3)CC1` (stereo not shown) [Example 40, 2-(4-acetylpiperazin-1-yl)-6-isopropyl-4-{[1-(4-isopropylphenyl)ethyl]amino}-5,6-dihydro-7H-pyrrolo[3,4-d]pyrimidin-7-one] was 310 nM; that for `CC(=O)N1CCN(c2nc(NCc3ccc(C(C)C)cc3)c3c(n2)C(=O)N(C(C)C)C3)CC1` [Example 43, 2-(4-acetylpiperazin-1-yl)-6-isopropyl-4-[(4-isopropylbenzyl)amino]-5,6-dihydro-7H-pyrrolo[3,4-d]pyrimidin-7-one] was 650 nM.

In the case of `COCCNc1nc2c(c(N3CCCC3Cc3ccc(Cl)cc3)n1)CN(C(C)C)C2=O` (stereo not shown) [Example 44, 4-[2-(4-chlorobenzyl)pyrrolidin-1-yl]-6-isopropyl-2-[(2-methoxyethyl)amino]-5,6-dihydro-7H-pyrrolo[3,4-d]pyrimidin-7-one], the 50% inhibitory concentration (IC50) came out at 9600 nM. The value for `CC(=O)NCCNc1nc2c(c(N3CCCC3Cc3ccc(Cl)cc3)n1)CN(C(C)C)C2=O` (stereo not shown) [Example 45, N-[2-({4-[2-(4-chlorobenzyl)pyrrolidin-1-yl]-6-isopropyl-7-oxo-6,7-dihydro-5H-pyrrolo[3,4-d]pyrimidin-2-yl}amino)ethyl]acetamide] was 2200 nM; that for `CC(=O)N1CCN(c2nc3c(c(N4CCCC4Cc4ccccc4Cl)n2)CN(C(C)C)C3=O)CC1` (stereo not shown) [Example 46, 2-(4-acetylpiperazin-1-yl)-4-[2-(2-chlorobenzyl)pyrrolidin-1-yl]-6-isopropyl-5,6-dihydro-7H-pyrrolo[3,4-d]pyrimidin-7-one] was 2300 nM. For the molecule `CC(=O)N1CCN(c2nc3c(c(N4CCCC4Cc4cccc(Cl)c4)n2)CN(C(C)C)C3=O)CC1` (stereo not shown) [Example 48, 2-(4-acetylpiperazin-1-yl)-4-[2-(3-chlorobenzyl)pyrrolidin-1-yl]-6-isopropyl-5,6-dihydro-7H-pyrrolo[3,4-d]pyrimidin-7-one], the half-inhibitory concentration (IC50) came out at 300 nM. With `CC(C)N1Cc2c(nc(N3CCNC(=O)C3)nc2N2CCCC2Cc2ccc(Cl)cc2)C1=O` (stereo not shown) [Example 49, 4-[2-(4-chlorobenzyl)pyrrolidin-1-yl]-6-isopropyl-2-(3-oxopiperazin-1-yl)-5,6-dihydro-7H-pyrrolo[3,4-d]pyrimidin-7-one] the figure was 2000 nM. For the molecule `CC(=O)N1CCN(c2nc3c(c(N4CCCC4Cc4ccc(Cl)cc4)n2)CN(C(C)C)C3=O)CC1` (stereo not shown) [Example 50, 2-(4-acetylpiperazin-1-yl)-4-[2-(4-chlorobenzyl)pyrrolidin-1-yl]-6-isopropyl-5,6-dihydro-7H-pyrrolo[3,4-d]pyrimidin-7-one], the concentration for half-maximal inhibition (IC50) is 150 nM. With `CC(=O)N1CCN(c2nc3c(c(N(Cc4ccccc4)CC4CC4)n2)CN(C(C)C)C3=O)CC1` [Example 51, 2-(4-acetylpiperazin-1-yl)-4-[benzyl(cyclopropylmethyl)amino]-6-isopropyl-5,6-dihydro-7H-pyrrolo[3,4-d]pyrimidin-7-one] the figure was 2700 nM; with `CC(=O)N1CCN(c2nc3c(c(N4CCCC4c4ccc(Cl)cc4)n2)CN(C(C)C)C3=O)CC1` (stereo not shown) [Example 52, 2-(4-acetylpiperazin-1-yl)-4-[2-(4-chlorophenyl)pyrrolidin-1-yl]-6-isopropyl-5,6-dihydro-7H-pyrrolo[3,4-d]pyrimidin-7-one], 720 nM. The value for `CC(=O)N1CCN(c2nc(NC(C)c3ccc(Cl)cc3)c3c(n2)C(=O)N(C(C)C)C3)CC1` (stereo not shown) [Example 53, 2-(4-acetylpiperazin-1-yl)-4-{[1-(4-chlorophenyl)ethyl]amino}-6-isopropyl-5,6-dihydro-7H-pyrrolo[3,4-d]pyrimidin-7-one] was 750 nM; that for `CC(=O)N1CCN(c2nc3c(c(N4CCCC4Cc4ccccc4)n2)CN(C(C)C)C3=O)CC1` (stereo not shown) [Example 54, 2-(4-acetylpiperazin-1-yl)-4-(2-benzylpyrrolidin-1-yl)-6-isopropyl-5,6-dihydro-7H-pyrrolo[3,4-d]pyrimidin-7-one] was 240 nM.

Regarding `CC(=O)N1CCN(c2nc(NCCc3ccc(C)c(C)c3)c3c(n2)C(=O)N(C(C)C)C3)CC1` [Example 55, 2-(4-acetylpiperazin-1-yl)-4-{[2-(3,4-dimethylphenyl)ethyl]amino}-6-isopropyl-5,6-dihydro-7H-pyrrolo[3,4-d]pyrimidin-7-one], the IC50 is 9700 nM. With `CC(=O)N1CCN(c2nc(NCCc3ccc(C)cc3C)c3c(n2)C(=O)N(C(C)C)C3)CC1` [Example 56, 2-(4-acetylpiperazin-1-yl)-4-{[2-(2,4-dimethylphenyl)ethyl]amino}-6-isopropyl-5,6-dihydro-7H-pyrrolo[3,4-d]pyrimidin-7-one] the figure was 2700 nM.

`CC(C)N1Cc2c(nc(NCCN(C)C)nc2N2CCCC2Cc2ccc(Cl)cc2)C1=O` (stereo not shown) [Example 57, 4-[2-(4-chlorobenzyl)pyrrolidin-1-yl]-2-{[2-(dimethylamino)ethyl]amino}-6-isopropyl-5,6-dihydro-7H-pyrrolo[3,4-d]pyrimidin-7-one]: the IC50 came to 8500 nM.

`CC(=O)N1CCN(c2nc3c(c(N(Cc4ccccc4)Cc4ccc(Cl)cc4)n2)CN(C(C)C)C3=O)CC1` [Example 58, 2-(4-acetylpiperazin-1-yl)-4-[benzyl(4-chlorobenzyl)amino]-6-isopropyl-5,6-dihydro-7H-pyrrolo[3,4-d]pyrimidin-7-one]: the IC50 came to 270 nM.

One may read the IC50 as the concentration that inhibits the measured activity by half.

Values taken from patent US20090099195A1 (ASTRAZENECA AB, priority 2007, published 2009).
